Results as given in ChEMBL document CHEMBL1201862, “PubChem BioAssay data set” (2004).
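Results reflect a 48-hour exposure of cells in 96-well plates to compound at five concentrations. Here, GI50 denotes the concentration required for 50% inhibition of growth.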 The source made the active and inactive calls. Rule as the data show it: active = GI50 up to about 1.1 µM and inactive = higher.

How the values were obtained:
Assay in all cases: inhibition of tumour cell growth, NCI panel, 48 h
786-0 = test system: 786-0
ACHN = test system: ACHN
DU-145 = test system: DU-145
HCT-15 = test system: HCT-15
HOP-62 = test system: HOP-62
HOP-92 = test system: HOP-92
K562 = test system: K562
MDA-N = test system: MDA-N
NCI-H23 = test system: NCI-H23
NCI/ADR-RES = test system: NCI/ADR-RES
OVCAR-8 = test system: OVCAR-8
PC-3 = test system: PC-3
SF-539 = test system: SF-539
SK-OV-3 = test system: SK-OV-3
SNB-75 = test system: SNB-75
SW-620 = test system: SW-620
T47D = test system: T47D
UACC-257 = test system: UACC-257
UACC-62 = test system: UACC-62
SNB-19 = test system: SNB-19

| Structure (SMILES) | GI50 (786-0) | GI50 (ACHN) | GI50 (DU-145) | GI50 (HCT-15) [µM] | GI50 (HOP-62) | GI50 (HOP-92) | GI50 (K562) | GI50 (MDA-N) | GI50 (NCI-H23) | GI50 (NCI/ADR-RES) | GI50 (OVCAR-8) | GI50 (PC-3) | GI50 (SF-539) | GI50 (SK-OV-3) | GI50 (SNB-75) | GI50 (SW-620) | GI50 (T47D) | GI50 (UACC-257) | GI50 (UACC-62) | GI50 (SNB-19) |
| --- | --- | --- | --- | --- | --- | --- | --- | --- | --- | --- | --- | --- | --- | --- | --- | --- | --- | --- | --- | --- |
| [N-]=[N+]=Nc1cc(=O)[nH]nc1-c1ccccc1 | > 100 µM (inactive) | > 100 µM (inactive) | > 100 µM (inactive) | > 100 | > 100 µM (inactive) | > 100 µM (inactive) | > 100 µM (inactive) | > 100 µM (inactive) | > 100 µM (inactive) | > 100 µM (inactive) | > 100 µM (inactive) | > 100 µM (inactive) | > 100 µM (inactive) | > 100 µM (inactive) | 61.4 µM (inactive) | > 100 µM (inactive) | > 100 µM (inactive) | > 100 µM (inactive) | > 100 µM (inactive) |  |
| CN(C)CCCNC(=O)CNC(=O)c1cc(NC(=O)c2cc(NC(=O)c3cc(NC(=O)CCNC(=O)c4cc(NC(=O)c5cc(NC(=O)c6nccn6C)cn5C)cn4C)cn3C)cn2C)cn1C | > 100 µM (inactive) | > 100 µM (inactive) | > 100 µM (inactive) | > 100 | > 100 µM (inactive) | > 100 µM (inactive) | 59.4 µM (inactive) | > 100 µM (inactive) | > 100 µM (inactive) | > 100 µM (inactive) | > 100 µM (inactive) | > 100 µM (inactive) | > 100 µM (inactive) | > 100 µM (inactive) | 41.3 µM (inactive) | > 100 µM (inactive) | > 100 µM (inactive) | > 100 µM (inactive) |  | > 100 µM (inactive) |
| CCOC(=O)c1cc2c([nH]1)c(OC(C)=O)cc1c2ccn1Cc1ccccc1 | > 100 µM (inactive) |  | > 100 µM (inactive) | > 100 | > 100 µM (inactive) | > 100 µM (inactive) | > 100 µM (inactive) | > 100 µM (inactive) | > 100 µM (inactive) | > 100 µM (inactive) | > 100 µM (inactive) | > 100 µM (inactive) | > 100 µM (inactive) | > 100 µM (inactive) | > 100 µM (inactive) | > 100 µM (inactive) | > 100 µM (inactive) | > 100 µM (inactive) | > 100 µM (inactive) | > 100 µM (inactive) |
| Oc1c(C2=NNC(c3cccs3)C2)ccc2ccccc12 (stereo not given) | 32.9 µM (inactive) | 27.7 µM (inactive) | 20.9 µM (inactive) | 18.2 | 26.9 µM (inactive) | 18.2 µM (inactive) | 17.9 µM (inactive) | 16.5 µM (inactive) | 28.5 µM (inactive) | 21.9 µM (inactive) | 27.5 µM (inactive) | 27 µM (inactive) | 20.1 µM (inactive) | 27.4 µM (inactive) | 21.3 µM (inactive) | 24.5 µM (inactive) | 4.42 µM (inactive) | 30.1 µM (inactive) | 15.6 µM (inactive) |  |
| CSC1=NN=C(SC)NN1 | 0.182 µM (active) | 0.168 µM (active) | 0.202 µM (active) | 0.169 | 0.201 µM (active) | 0.173 µM (active) | 0.117 µM (active) | 0.18 µM (active) | 0.285 µM (active) | 0.3 µM (active) | 0.285 µM (active) | 0.166 µM (active) | 0.205 µM (active) | 0.186 µM (active) |  | 0.17 µM (active) | 0.142 µM (active) | 0.131 µM (active) | 0.148 µM (active) | 0.191 µM (active) |
| CCCC[C@H]1CCN2C[C@@H](O)[C@@H](O)[C@H]2[C@@H]1O | > 100 µM (inactive) | > 100 µM (inactive) | > 100 µM (inactive) | > 100 |  | > 100 µM (inactive) | > 100 µM (inactive) | > 100 µM (inactive) | > 100 µM (inactive) | > 100 µM (inactive) | > 100 µM (inactive) | > 100 µM (inactive) | > 100 µM (inactive) | > 100 µM (inactive) | > 100 µM (inactive) | > 100 µM (inactive) | > 100 µM (inactive) | > 100 µM (inactive) | > 100 µM (inactive) | > 100 µM (inactive) |
| N#CCCN(CCN(CCN(C(=O)Nc1ccccc1)c1ccccc1)C(=O)Nc1ccccc1)C(=O)Nc1ccccc1 | > 100 µM (inactive) | 40.1 µM (inactive) | > 100 µM (inactive) | > 100 | > 100 µM (inactive) | 15.2 µM (inactive) |  | > 100 µM (inactive) | > 100 µM (inactive) | > 100 µM (inactive) | > 100 µM (inactive) | 6.85 µM (inactive) | > 100 µM (inactive) | > 100 µM (inactive) | 67.6 µM (inactive) | > 100 µM (inactive) | 48.4 µM (inactive) | > 100 µM (inactive) | > 100 µM (inactive) | > 100 µM (inactive) |
| S=c1[nH]c2c(Cl)c(Cl)c(Cl)c(Cl)c2[nH]1 | 26.2 µM (inactive) | 15.8 µM (inactive) | 36.1 µM (inactive) | 22 | 25.1 µM (inactive) | 19.5 µM (inactive) | 7.23 µM (inactive) | 17.3 µM (inactive) | 29.2 µM (inactive) | 18.5 µM (inactive) | 23.2 µM (inactive) | 22.2 µM (inactive) | 12.1 µM (inactive) | 20.1 µM (inactive) |  | 19.8 µM (inactive) | 52.5 µM (inactive) | 19.4 µM (inactive) | 15.2 µM (inactive) | 27.9 µM (inactive) |
| CCCCCCCCCCCCCCCCCCN(C)C(COC)COP(=O)([O-])OCC[N+](C)(C)C (stereo not given) | 1.74 µM (inactive) | 11.9 µM (inactive) | 10.1 µM (inactive) |  | 3.09 µM (inactive) | 1.89 µM (inactive) | 11.8 µM (inactive) | 15.6 µM (inactive) | 8.45 µM (inactive) | 24.5 µM (inactive) | 11.8 µM (inactive) | 1.53 µM (inactive) | 7.01 µM (inactive) | 11.2 µM (inactive) | 2.97 µM (inactive) | 6.47 µM (inactive) | 18.4 µM (inactive) | 14.6 µM (inactive) | 5.16 µM (inactive) | 3.61 µM (inactive) |
| COc1ccc(C2SCC(=O)N2c2ccc(-c3ccc(-n4c(-c5ccccc5)nc5ccccc5c4=O)cc3)cc2)cc1 (stereo not given) | 36.1 µM (inactive) | 70 µM (inactive) | 42 µM (inactive) | 44.5 | 69.8 µM (inactive) | 15.7 µM (inactive) | 30.4 µM (inactive) | 65.9 µM (inactive) | 68.9 µM (inactive) | 96.2 µM (inactive) | 78.7 µM (inactive) | 34 µM (inactive) | 74.8 µM (inactive) | > 100 µM (inactive) |  | 94.4 µM (inactive) | 21 µM (inactive) | > 100 µM (inactive) | 33 µM (inactive) | > 100 µM (inactive) |
| COc1ccc(OC)c2sc(N3C(=O)/C(=C/c4ccc(SC)cc4)N=C3c3ccccc3)nc12 | 43.3 µM (inactive) | 28.9 µM (inactive) | 39.9 µM (inactive) | 43.1 | 16.4 µM (inactive) | 55.7 µM (inactive) | > 100 µM (inactive) | 20.3 µM (inactive) |  | 29.3 µM (inactive) | 27.7 µM (inactive) | 21.7 µM (inactive) | 23.8 µM (inactive) | 30.5 µM (inactive) | 18.3 µM (inactive) | 27.4 µM (inactive) | 26.3 µM (inactive) | 17.3 µM (inactive) | 31.5 µM (inactive) | 26.4 µM (inactive) |
| CCOC(=O)/C(C#N)=C1\c2c([nH]c(=S)[nH]c2=O)Oc2ccc3ccccc3c21 | 53.8 µM (inactive) | 28.8 µM (inactive) | 78.9 µM (inactive) | 71.6 | 42.2 µM (inactive) | 43.5 µM (inactive) | > 100 µM (inactive) | 51.2 µM (inactive) | 88.1 µM (inactive) | 59.3 µM (inactive) | 54.7 µM (inactive) | 34 µM (inactive) |  | 44.9 µM (inactive) | 23.3 µM (inactive) | 4.06 µM (inactive) | 34.7 µM (inactive) | > 100 µM (inactive) | 24.4 µM (inactive) | 0.0887 µM (active) |
| Cc1cn(C2CC(COCc3ccccc3)N(CCO[Si](C)(C)C(C)(C)C)O2)c(=O)[nH]c1=O (stereo not given) | 27.9 µM (inactive) | 14.9 µM (inactive) | 15.8 µM (inactive) |  | 17.3 µM (inactive) | 8.81 µM (inactive) | 4.71 µM (inactive) | 14.6 µM (inactive) | 16.2 µM (inactive) | 14.3 µM (inactive) | 15.5 µM (inactive) | 5.28 µM (inactive) | 19.1 µM (inactive) | 17.6 µM (inactive) |  | 15.5 µM (inactive) | 13.5 µM (inactive) |  | 11.9 µM (inactive) | 13.6 µM (inactive) |
| O=C1CSC(c2ccccc2[N+](=O)[O-])N1c1ccc(-c2ccc(-n3c(-c4ccccc4)nc4ccccc4c3=O)cc2)cc1 (stereo not given) | > 100 µM (inactive) | > 100 µM (inactive) | > 100 µM (inactive) | 74.3 | > 100 µM (inactive) | 46.6 µM (inactive) | 67.3 µM (inactive) | > 100 µM (inactive) | > 10 µM (inactive) | 86.5 µM (inactive) | > 100 µM (inactive) | > 100 µM (inactive) | 58.6 µM (inactive) | > 100 µM (inactive) | 18.4 µM (inactive) | 36.4 µM (inactive) | 29.1 µM (inactive) | > 100 µM (inactive) | 36.6 µM (inactive) | > 100 µM (inactive) |
| CC(=O)c1cc2c(s1)C(=O)c1ccsc1C2=O | 1.92 µM (inactive) | 0.215 µM (active) | 0.309 µM (active) | 0.179 | 0.491 µM (active) | 1.56 µM (inactive) | 0.407 µM (active) | 0.0802 µM (active) | 0.167 µM (active) | 0.378 µM (active) | 0.373 µM (active) | 0.458 µM (active) | 0.27 µM (active) | 1.87 µM (inactive) | 0.192 µM (active) | 0.275 µM (active) | 1.31 µM (inactive) | 0.132 µM (active) | 0.255 µM (active) | 0.294 µM (active) |
